Data published in patent US8314144B2, “Compounds having antitumor activity” (Defiante Farmaceutica, S.A., priority 2004, dated 2012).
Like-named read-outs stand apart in the source and are kept apart here.

Assays:
[1] = system: human hepatocarcinoma cells (HepG2); assay: Cell mortality of HepG2 cells by propidium iodide flow cytofluorimetry; assay type: cell-based; details: for mortality at 5 µM / mortality at 20 µM: Homo sapiens
Method: (§1) The cells were seeded in 60 mm-diameter Petri dishes. After plating the cells were grown for 24 hours prior to their treatment.
(§2) In this experiment, increasing amounts of the test molecule were added to hemiconfluent HepG2 cells (Kogure et al., Cancer Chemother. Pharmacol., 2003; DOI. 10.1007/s); the antiproliferative and proapoptotic effects were determined at different times from cell seeding.
(§3) The experimental design in some cases provided for the addition of the test compound once the cell culture had been prepared, in other cases the cultures were exposed to the compound every 24 hours after suitably removing the conditioned medium and washing the cells with new (complete) medium. The cells were counted in a Bürker chamber after suitable dilution with a vital dye to visualize the living cells. In particular, the trypan blue exclusion method was used for cell count at 0, 24 and 48 hour treatment. At least 10 cell counts were performed for each experiment and each treatment was carried out in quadruple.
(§4) A further analysis involved cytofluorimetry utilizing propidium iodide as a marker for […] cells. The test compound was assayed vs. the CTP inhibitor etomoxir to verify whether the tumoricidal effect could be attributed to CPT-1 inhibition or involved novel mechanisms.
In addition, assays on cell viability were carried out using flow cytofluorimetry techniques.
In further experiments the test molecule was added every 24 hours, as above described, after suitably removing the surnatants and washing the cultures with complete medium. […] In the control, the surnatant was eliminated and complete medium alone was added to the cultures.

[2] = system: human hepatocarcinoma cells (HepG2); assay: HepG2 cell count (trypan blue exclusion), antiproliferative and tumoricidal effect; assay type: cell-based; details: for number of viable cells versus control cultures (FIGURE): HepG2, less than 10 μM, after 24 hours; for antiproliferative and tumoricidal activity in vitro: tumor cell lines, same experimental conditions for etomoxir and compounds (I)
Method: as §1, §2, §3, §4
The data relating to cell viability are expressed as percentage on the number of viable cells from control cultures (=100%). (E=etomoxir; ST1326=tested compound). […] At the same concentrations etomoxir was ineffective.

[3] = system: acute leukaemia T cells (Jurkat); assay: Cell mortality of Jurkat cells by propidium iodide flow cytofluorimetry; assay type: cell-based
Method: The cells were seeded in […] flasks. After plating the cells were grown for 24 hours prior to their treatment.
The experiment was carried out by adding increasing amounts of the test molecule to hemiconfluent Jurkat cells; the proapoptotic effect was determined at different times from culture preparation.
The experimental design provided for the addition of the test compound only at the start of cell culturing, and the determination of the effects at the established times. The data on cell mortality were obtained using propidium iodide flow cytofluorimetry techniques only. The fact that those cells live suspended in culture rendered these assays extremely easy to perform.
For this reason the cell mortality was determined just after 2 hour treatment and at 24, 48 and 72 hrs.
The mortality was calculated as the percentage over 10.000 acquired standard events. Since the results are almost exactly overlapping, with very low deviation in all the readings for each single experiment, the mean values of 5 cytofluorimetric readings are reported in the following Table without standard deviation.

[4] = system: normal PBMCs; assay: Viability test with lymphocytes (PBMCs) taken from healthy individuals; assay type: cell-based; details: 72 hours
Method: In addition, in order to exclude the induction of toxicity in normal PBMCs by the test molecule, viability tests were also carried out with lymphocytes taken from healthy individuals and contacted with the test compound.

[5] = system: AH-130 Yoshida ascites hepatoma; assay: In vivo antineoplastic activity in rats bearing Yoshida tumor; parameters: species or system rat; details: 25 mg/Kg i.p., alternate days, 4 treatments, 15 animals
Method: Male Wistar rats (Morini s.r.l.) of 190-200 g weight were maintained at 22±2° C., with a light/dark cycle of 12 hours, and were given free access to water and food (standard diet). Some rats were intraperitoneally inoculated with 10×10^7 cells from AH-130 Yoshida ascites hepatoma (Llovera et al., Int. J. Cancer 61:138-41 (1995); kind gift from Prof. J M Argilès). 5-7 days after the inoculum, the rats developed an ascites that could be detected by macroscopic analysis of the abdomen.
(§5) The experimental protocol provided that 7 days after ascites induction 15 animals (treated group) received 2 ml of a buffered saline containing ST (25 mg/Kg i.p.), whereas other 15 animals (control group) received the buffered saline alone. The same treatment was conducted at alternate days for one week up to a total of 4 treatments for each animal. The dosage was selected on the basis of preliminary studies in which a 6.1 μM plasma concentration of ST was achieved 5 hr after intraperitoneal administration. The animals were subsequently kept under observation for 3 weeks (follow-up), examining the ascites effusion, the presence of subcutaneous neoplastic mass in the inoculum site, and the mortality.

[6] = Plasma concentration after intraperitoneal administration (preliminary studies); assay type: in vivo, rat; details: 5 hr after intraperitoneal administration
Method: as §5

**Q.** What does the source list for CCOC(=O)[C@@]1(CCCCCCOc2ccc(Cl)cc2)CO1 [Etomoxir, etomoxir, reference compound]?
**A.** mortality at 5 µM ([1]; HepG2, 24 h, read-out: cell mortality, HepG2, 5 μM, treated only once (time 0), 24 hours): 10.8 ± 1.65%; mortality at 20 µM ([1]; HepG2, 24 h, read-out: cell mortality, HepG2, 20 μM, treated only once (time 0), 24 hours): 13 ± 1.07%; mortality at 5 µM ([1]; HepG2, 48 h, read-out: cell mortality, HepG2, 5 μM, treated only once (time 0), 48 hours): 11.8 ± 0.4%; mortality at 20 µM ([1]; HepG2, 48 h, read-out: cell mortality, HepG2, 20 μM, treated only once (time 0), 48 hours): 11.2 ± 1.3%; mortality at 5 µM ([1]; HepG2, 72 h, read-out: cell mortality, HepG2, 5 μM, treated only once (time 0), 72 hours): 10.1 ± 2.1%; mortality at 20 µM ([1]; HepG2, 72 h, read-out: cell mortality, HepG2, 20 μM, treated only once (time 0), 72 hours): 11.7 ± 1.3%; mortality at 5 µM ([1]; HepG2, read-out: cell mortality, HepG2, 5 μM added every 24 hours, 48 hours (second addition)): 10.2 ± 1.7%; mortality at 5 µM ([1]; HepG2, read-out: cell mortality, HepG2, 5 μM added every 24 hours, 72 hours (third addition)): 12.6 ± 1.1%; mortality at 20 µM ([1]; HepG2, read-out: cell mortality, HepG2, 20 μM added every 24 hours, 48 hours (second addition)): 13.9 ± 1.2%; mortality at 20 µM ([1]; HepG2, read-out: cell mortality, HepG2, 20 μM added every 24 hours, 72 hours (third addition)): 14.1 ± 0.9%; number of viable cells versus control cultures (FIGURE) [2]: ineffective; antiproliferative and tumoricidal activity in vitro [2]: did not show any antiproliferative or tumoricidal activity

**Q.** Which cell mortality ([1]; HepG2, 0.1 μM added every 24 hours, 48 hours (second addition)) does the source give for CCCCCCCCCCCCCCNC(=O)N[C@H](CC(=O)[O-])C[N+](C)(C)C [ST1326, R-4-trimethylammonium-3-(tetradecylcarbamoyl)-Aminobutyrate] here?
**A.** 45 ± 2.0%

**Q.** What about the cell mortality ([1]; HepG2, 0.1 μM added every 24 hours, 72 hours (third addition)) of the same compound?
**A.** 56.5 ± 1.2%

**Q.** What about the cell mortality ([1]; HepG2, 0.1 μM, prior experiments, partial tumoricidal effect) of the same compound?
**A.** ~50%

**Q.** And the cell mortality ([1]; HepG2, 0.1 μM, treated only once (time 0), 24 hours)?
**A.** 15.3 ± 2.1%

**Q.** And the cell mortality ([1]; HepG2, 0.1 μM, treated only once (time 0), 48 hours)?
**A.** 27.3 ± 2.2%

**Q.** What about the cell mortality ([1]; HepG2, 0.1 μM, treated only once (time 0), 72 hours) of the same compound?
**A.** 49.9 ± 1.2%

**Q.** And the cell mortality ([1]; HepG2, 5 μM added every 24 hours, 48 hours (second addition))?
**A.** 64.7 ± 1.7%

**Q.** And the cell mortality ([1]; HepG2, 5 μM added every 24 hours, 72 hours (third addition))?
**A.** 89.7 ± 1.4%

**Q.** What about the cell mortality ([1]; HepG2, 5 μM, treated only once (time 0), 24 hours) of the same compound?
**A.** 25.78 ± 1.70%

**Q.** And the cell mortality ([1]; HepG2, 5 μM, treated only once (time 0), 48 hours)?
**A.** 56.29 ± 1.51%

**Q.** What about the cell mortality ([1]; HepG2, 5 μM, treated only once (time 0), 72 hours) of the same compound?
**A.** 93.48 ± 1.5%

**Q.** And the cell mortality ([1]; HepG2, 10 μM added every 24 hours, 48 hours (second addition))?
**A.** 87.5 ± 2.03%

**Q.** What about the cell mortality ([1]; HepG2, 10 μM added every 24 hours, 72 hours (third addition)) of the same compound?
**A.** 91.3 ± 1.9%

**Q.** And the cell mortality ([1]; HepG2, 10 μM, treated only once (time 0), 24 hours)?
**A.** 53.21 ± 1.5%

**Q.** And the cell mortality ([1]; HepG2, 10 μM, treated only once (time 0), 48 hours)?
**A.** 85.10 ± 0.9%

**Q.** What about the cell mortality ([1]; HepG2, 10 μM, treated only once (time 0), 72 hours) of the same compound?
**A.** 96.3 ± 1.1%

**Q.** And the cell mortality ([1]; HepG2, 20 μM added every 24 hours, 48 hours (second addition))?
**A.** 93.9 ± 1.03%

**Q.** What about the cell mortality ([1]; HepG2, 20 μM added every 24 hours, 72 hours (third addition)) of the same compound?
**A.** 98.1 ± 0.9%

**Q.** And the cell mortality ([1]; HepG2, 20 μM, treated only once (time 0), 24 hours)?
**A.** 88.22 ± 1.9%

**Q.** And the cell mortality ([1]; HepG2, 20 μM, treated only once (time 0), 48 hours)?
**A.** 89.10 ± 0.17%

**Q.** And the cell mortality ([1]; HepG2, 20 μM, treated only once (time 0), 72 hours)?
**A.** 98.51 ± 1.3%

**Q.** And the cell mortality ([3]; 0.1 μM, 2 hours)?
**A.** 3%

**Q.** And the cell mortality ([3]; 0.1 μM, 24 hours)?
**A.** 4%

**Q.** And the cell mortality ([3]; 0.1 μM, 48 hours)?
**A.** 5%

**Q.** And the cell mortality ([3]; 0.1 μM, 72 hours)?
**A.** 13%

**Q.** And the cell mortality ([3]; 0.25 μM, 2 hours)?
**A.** 3%

**Q.** And the cell mortality ([3]; 0.25 μM, 24 hours)?
**A.** 5%

**Q.** What about the cell mortality ([3]; 0.25 μM, 48 hours) of the same compound?
**A.** 8%

**Q.** And the cell mortality ([3]; 0.25 μM, 72 hours)?
**A.** 14%

**Q.** What about the cell mortality ([3]; 0.50 μM, 2 hours) of the same compound?
**A.** 7%

**Q.** What about the cell mortality ([3]; 0.50 μM, 24 hours) of the same compound?
**A.** 15%

**Q.** And the cell mortality ([3]; 0.50 μM, 48 hours)?
**A.** 35%

**Q.** What about the cell mortality ([3]; 0.50 μM, 72 hours) of the same compound?
**A.** 56%

**Q.** And the cell mortality ([3]; 1.0 μM, 2 hours)?
**A.** 6%

**Q.** What about the cell mortality ([3]; 1.0 μM, 24 hours) of the same compound?
**A.** 79%

**Q.** What about the cell mortality ([3]; 1.0 μM, 48 hours) of the same compound?
**A.** 83%

**Q.** What about the cell mortality ([3]; 1.0 μM, 72 hours) of the same compound?
**A.** 90%

**Q.** What about the cell mortality ([3]; 2.5 μM, 2 hours) of the same compound?
**A.** 6%

**Q.** And the cell mortality ([3]; 2.5 μM, 24 hours)?
**A.** 91%

**Q.** What about the cell mortality ([3]; 2.5 μM, 48 hours) of the same compound?
**A.** 97%

**Q.** What about the cell mortality ([3]; 2.5 μM, 72 hours) of the same compound?
**A.** 99%

**Q.** What about the cell mortality ([3]; 5.0 μM, 2 hours) of the same compound?
**A.** 8%

**Q.** What about the cell mortality ([3]; 5.0 μM, 24 hours) of the same compound?
**A.** 99%

**Q.** And the cell mortality ([3]; 5.0 μM, 48 hours)?
**A.** 99%

**Q.** And the cell mortality ([3]; 5.0 μM, 72 hours)?
**A.** 99%

**Q.** And the cell mortality ([3]; 10 μM, 2 hours)?
**A.** 20%

**Q.** What about the cell mortality ([3]; 10 μM, 24 hours) of the same compound?
**A.** 99%

**Q.** What about the cell mortality ([3]; 10 μM, 48 hours) of the same compound?
**A.** 99%

**Q.** What about the cell mortality ([3]; 10 μM, 72 hours) of the same compound?
**A.** 99%

**Q.** And the “viability test (cell mortality) in PBMCs” value ([4]; 1.0 μM)?
**A.** 9%

**Q.** What about the “viability test (cell mortality) in PBMCs” value ([4]; 5.0 μM) of the same compound?
**A.** 10%

**Q.** And the “viability test (cell mortality) in PBMCs” value ([4]; 10 μM)?
**A.** 10%

**Q.** What about the “viability test (cell mortality) in PBMCs” value ([4]; 20 μM) of the same compound?
**A.** 12%

**Q.** What about the “Presence of cachexy (No. of animals)” value [5] of the same compound?
**A.** 1

**Q.** And the “Presence of tumor cells in the abdominal cavity (post-mortem examination) (No. of animals)” value [5]?
**A.** 0

**Q.** And the “Presence of tumor mass in the inoculum site (No. of animals)” value [5]?
**A.** 0

**Q.** And the “Survival at 1 week follow-up (No. of survived animals)” value [5]?
**A.** 15

**Q.** What about the “Survival at 2 week follow-up (No. of survived animals)” value [5] of the same compound?
**A.** 15

**Q.** And the “Survival at 3 week follow-up (No. of survived animals)” value [5]?
**A.** 15

**Q.** What about the plasma concentration [6] of the same compound?
**A.** 6.1 µM

**Q.** And the “number of viable cells versus control cultures (FIGURE)” value [2]?
**A.** remarkable reduction in the number of cells

**Q.** What about the “antiproliferative and tumoricidal activity in vitro” value [2] of the same compound?
**A.** in vitro antiproliferative effect associated with a significant tumoricidal activity
